Patent US20250269039A1, “THERAPEUTIC-OLIGONUCLEOTIDES ACTIVATED BY NUCLEASES” (priority 2020, published 2025)
Values after ≈ are worked out from the molar mass of the structure shown. Read-outs that look alike come from different tables or passages of the source.

Columns and labels:
P. aeruginosa ATCC 10145 = test: Broth microdilution MIC and growth inhibition (control bacteria); assay type: cell-based; settings: Pseudomonas aeruginosa, ATCC10145, 18 h, TOUCAN as NA equivalent, read-out: MIC
Excerpt: (§1) Bacteria strains. S. aureus NCTC 12493 (MRSA), S. aureus ATCC 29213 (MSSA), S. aureus ATCC 43300 (MRSA), S. aureus ATCC 1707 (MRSA), S. aureus ATCC 1717 (MRSA), S. aureus ATCC 1747 (MRSA), S. aureus ATCC 1761 (MRSA), S. aureus ATCC 1766 (MRSA), S. aureus ATCC 1768 (MRSA), S. epidermidis ATCC 35984, E. coli ATCC 25922, K. pneumoniae ATCC 13883, P. mirabilis ATCC 25933, S. enterica ATCC 14028 and P. aeruginosa ATCC 10145 strains were used in this study. Bacteria were initially inoculated onto tryptone soy agar with 5% defibrinated sheep blood (Thermo Fisher Scientific, Inc., Waltham, MA, USA) and incubated at 37° C. for 24 hours. Then, single colonies of each strain were transferred to tryptone soy broth (Thermo Fisher Scientific) for the nuclease activity assay or antimicrobial susceptibility testing, respectively.
(§2) Antimicrobial susceptibility testing. Minimal inhibitory concentrations (MIC) of all nucleoside analogues and TOUCANs against each bacteria strain were determined using broth microdilution method. A single colony obtained from overnight culture on tryptone soy agar with 5% defibrinated sheep blood was inoculated in cation-adjusted Mueller Hinton Broth and adjusted to 10^6 CFU/mL. TOUCANs were prepared in PBS+/+ (treatment) and serial dilutions were made in 96-well polystyrene round bottom microwell plates with 50 μL final volume for each concentration. PBS+/+ was used as untreated control. Next, 50 μL bacteria solutions were added to each well to a final bacteria concentration of 5×10^5 CFU/mL. Plates were incubated at 37° C. in Cytation 1 Cell Imaging Multimode Reader. Growth curves were obtained by measuring optical densities at 600 nm every 10 minutes for 18 hours using Cytation 1 Cell Imaging Multimode Reader. In addition, visual inspection of the plates was carried out after 18 hours and photographs were taken. MICs were defined as the lowest drug concentration in the microwell at which bacterial growth was not visible at the end of the incubation period. Besides MIC determination, specificity of TOUCAN 7mGe was also shown with subcultures on chromogenic media. For this purpose, 5 μL of different concentrations of each strain were inoculated onto CHROM agar Orientation Media (Becton Dickinson) and the bacterial growth of each bacteria strain tested was observed by naked eye after incubation at 37° C. for 24 hours. Finally, photographs of the chromogenic media were taken.

S. enterica ATCC 14028 = test: as above; assay type: cell-based; settings: Salmonella enterica, ATCC14028, 18 h, TOUCAN as NA equivalent, read-out: MIC
Excerpt: as §1, §2

K. pneumoniae ATCC 13883 = test: as above; assay type: cell-based; settings: Klebsiella pneumoniae, ATCC13883, 18 h, TOUCAN as NA equivalent, read-out: MIC
Excerpt: as §1, §2

[1] = tested on: S. aureus NCTC 12493 (MRSA); test: Broth microdilution MIC and growth inhibition; assay type: cell-based, Staphylococcus aureus; settings: for MIC: Staphylococcus aureus, read-out: MIC
Excerpt: as §1, §2

[2] = tested on: S. aureus ATCC 29213 (MSSA); test: Broth microdilution MIC and growth inhibition; assay type: cell-based, Staphylococcus aureus; settings: for MIC: Staphylococcus aureus, read-out: MIC
Excerpt: as §1, §2

[3] = tested on: S. aureus ATCC 43300 (MRSA); test: Broth microdilution MIC and growth inhibition; assay type: cell-based, Staphylococcus aureus; settings: Staphylococcus aureus, 18 h, TOUCAN as NA equivalent, read-out: MIC
Excerpt: as §1, §2

[4] = tested on: S. aureus ATCC 1761 (MRSA); test: Broth microdilution MIC and growth inhibition; assay type: cell-based, Staphylococcus aureus; settings: Staphylococcus aureus, 18 h, TOUCAN as NA equivalent, read-out: MIC
Excerpt: as §1, §2

[5] = tested on: S. aureus ATCC 1766 (MRSA); test: Broth microdilution MIC and growth inhibition; assay type: cell-based, Staphylococcus aureus; settings: Staphylococcus aureus; S. aureus ATCC 1766 (MRSA); 18 h; TOUCAN as NA equivalent; read-out: MIC
Excerpt: as §1, §2

[6] = tested on: S. aureus ATCC 1768 (MRSA); test: Broth microdilution MIC and growth inhibition; assay type: cell-based, Staphylococcus aureus; settings: Staphylococcus aureus, 18 h, TOUCAN as NA equivalent, read-out: MIC
Excerpt: as §1, §2

[7] = tested on: S. aureus ATCC 1707 (MRSA); test: Broth microdilution MIC and growth inhibition; assay type: cell-based, Staphylococcus aureus; settings: Staphylococcus aureus, 18 h, TOUCAN as NA equivalent, read-out: MIC
Excerpt: as §1, §2

[8] = tested on: S. aureus ATCC 1747 (MRSA); test: Broth microdilution MIC and growth inhibition; assay type: cell-based, Staphylococcus aureus; settings: Staphylococcus aureus, 18 h, TOUCAN as NA equivalent, read-out: MIC
Excerpt: as §1, §2

[9] = tested on: S. aureus ATCC 1717 (MRSA); test: Broth microdilution MIC and growth inhibition; assay type: cell-based, Staphylococcus aureus; settings: Staphylococcus aureus, 18 h, TOUCAN as NA equivalent, read-out: MIC
Excerpt: as §1, §2

E. coli ATCC 25922 = test: Broth microdilution MIC and growth inhibition (control bacteria); assay type: cell-based, Escherichia coli; settings: Escherichia coli, ATCC25922, 18 h, TOUCAN as NA equivalent, read-out: MIC
Excerpt: as §1, §2

P. mirabilis ATCC 25933 = test: as above; assay type: cell-based, Proteus mirabilis; settings: Proteus mirabilis, ATCC25933, 18 h, TOUCAN as NA equivalent, read-out: MIC
Excerpt: as §1, §2

[10] = Complete blood counts of infected/treated mice
[11] = tested on: S. epidermidis ATCC 35984; test: Broth microdilution MIC and growth inhibition (control bacteria); assay type: cell-based, Staphylococcus epidermidis; settings: Staphylococcus epidermidis, ATCC35984; S. epidermidis ATCC 35984; 18 h; TOUCAN as NA equivalent; read-out: MIC
Excerpt: as §1, §2

[12] = infected/treated mice, blood after 24 hours, AVG, n = 4

SMILES: O=c1[nH]c(=O)n([C@H]2C[C@H](O)[C@@H](CO)O2)cc1F [Floxuridine, reference compound]
- MIC (P. aeruginosa ATCC 10145): > 40 µg/mL
- MIC (S. enterica ATCC 14028): 20 µg/mL
- MIC (K. pneumoniae ATCC 13883): 20 µg/mL
- MIC ([1]; S. aureus NCTC 12493 (MRSA), 18 h, TOUCAN as NA equivalent): 0.32 µg/mL
- MIC ([1]; Table 1, S. aureus NCTC 12493): 0.32 µg/mL (≈ 1.3 µM)
- % Growth inhibition ([1]; Table 1, S. aureus NCTC 12493, mean ± SD, n = 3): 87.9 ± 0.4%
- MIC ([2]; S. aureus ATCC 29213 (MSSA), 18 h, TOUCAN as NA equivalent): 0.08 µg/mL
- MIC ([2]; Table 1, S. aureus ATCC 29213): 0.08 µg/mL (≈ 0.325 µM)
- % Growth inhibition ([2]; Table 1, S. aureus ATCC 29213, mean ± SD, n = 3): 93.1 ± 0.3%
- MIC [3]: 0.04 µg/mL
- MIC [4]: 0.005 µg/mL
- MIC [5]: 0.04 µg/mL
- MIC [6]: 0.04 µg/mL
- MIC [7]: 0.04 µg/mL
- MIC [8]: 0.005 µg/mL
- MIC [9]: 0.08 µg/mL
- MIC (E. coli ATCC 25922): 20 µg/mL
- MIC (P. mirabilis ATCC 25933): 5 µg/mL
- percentage of neutrophils in blood ([10]; infected treated mice, after 24 hours, FIG. 7i): 30.3%
- BAS [10, 12]: 0.0 10^9/L
- BAS % [10, 12]: 0.5%
- EO [10, 12]: 0.0 10^9/L
- EO % [10, 12]: 1.0%
- HCT [10, 12]: 40.8%
- HGB [10, 12]: 12.8 g/dL
- LYM [10, 12]: 1.1 10^9/L
- LYM % [10, 12]: 48.9%
- MCH [10, 12]: 14.8 pg
- MCHC [10, 12]: 31.5 g/dL
- MCV [10, 12]: 47.4 fL
- MON [10, 12]: 0.3 10^9/L
- MON % [10, 12]: 13.5%
- NE [10, 12]: 0.7 10^9/L
- NE % [10, 12]: 36.1%
- PLT [10, 12]: 599.3 K/μL
- RBC [10, 12]: 8.6e+12 L⁻¹
- RET [10, 12]: 384.9 K/μL
- RET % [10, 12]: 4.5%
- WBC [10, 12]: 2.2 10^9/L
- change of red blood cells (RBCs), hematocrit and hemoglobin (acute blood toxicity) ([10]; treated mice versus uninfected and placebo groups, FIG. 11): reduction
- MIC [11]: 0.04 µg/mL
